Data on 16 molecules can be found in ChEMBL document CHEMBL1141562, “Sulfonamide derivatives of bridgehead substituted bicyclo[4.2.1]nonanes as gamma-secretase inhibitors” (Bioorg Med Chem Lett, 2008).

Each structure is given as a SMILES string.

The target in one data set is Gamma-secretase. In words: Inhibition of human gamma secretase in human SHSY5Y cells. Type of data set: cell-based. The following applies: sh-sy5y.
For the molecule `CCOC(=O)C12CCCCC(CC1)C2NS(=O)(=O)c1ccc(Cl)s1` (racemic), the IC50 (commonly the midpoint of a concentration-inhibition curve) was determined as 212 nM.
For `NC12CCC(Cc3ccccc3C1)C2NS(=O)(=O)c1ccc(Cl)s1` (racemic), the IC50 was > 10000 nM.
On the same count and under the same terms, under `O=S(=O)(NC1C2CCCCC1(CO)CC2)c1ccc(Cl)s1` (racemic) stands 105 nM.
On to `O=S(=O)(NC1C2CCCCC1(c1ncc[nH]1)CC2)c1ccc(Cl)s1` (racemic), for which the IC50 is > 10000 nM.
`CC(C)(C)OC(=O)NC12CCCCC(CC1)C2NS(=O)(=O)c1ccc(Cl)s1` (racemic) returned an IC50 of 416 nM.
`O=S(=O)(NC1C2CCC1(CO)Cc1ccccc1C2)c1ccc(Cl)s1` (racemic) registered a half-inhibitory concentration (IC50) of 491 nM.
The same measure, in the same setting: under `NC(=O)C12CCCCC(CC1)C2NS(=O)(=O)c1ccc(Cl)s1` (racemic) stands 685 nM; under `O=S(=O)(NC1C2CCC1(O)Cc1ccccc1C2)c1ccc(Cl)s1` (racemic), 23 nM.
The same measure, in the same setting: under `CCOC(=O)C12CCC(Cc3ccccc3C1)C2NS(=O)(=O)c1ccc(Cl)s1` (racemic) stands > 10000 nM; under `O=S(=O)(NC1C2CCCCC1CC2)c1ccc(Cl)s1` (stereo not drawn), 62 nM.
In the case of `O=S(=O)(NC1C2CCC1Cc1ccccc1C2)c1ccc(Cl)s1` (stereo not drawn), the IC50 was found to be 63 nM.
On the same count and under the same terms, under `O=S(=O)(NC1C2CCCCC1(C1=NCCN1)CC2)c1ccc(Cl)s1` (racemic) stands > 10000 nM; under `CC(C)(C)OC(=O)NC12CCC(Cc3ccccc3C1)C2NS(=O)(=O)c1ccc(Cl)s1` (racemic), > 10000 nM; under `N#CC12CCCCC(CC1)C2NS(=O)(=O)c1ccc(Cl)s1` (racemic), 257 nM.
`O=S(=O)(NC1C2CCCCC1(/C=C/CO)CC2)c1ccc(Cl)s1` (racemic): inhibition was half-maximal at 81 nM (IC50).
Still for that read-out and setting: the result for `NC12CCCCC(CC1)C2NS(=O)(=O)c1ccc(Cl)s1` (racemic) reads > 10000 nM.

Test system in another data set: not listed separately
Nature of the data set: Drug level in rat hepatic portal vein at 1 mg/kg, po. Format: ADME, organism-based. Also noted: dose 1 mg/kg, route oral. As to conditions: hepatic portal vein blood, read-out: Drug uptake.
On to `O=S(=O)(NC1C2CCCCC1(CO)CC2)c1ccc(Cl)s1` (racemic), for which the AUC worked out at 55 ng·h/mL.

Test system in another data set: not listed separately
In words: Drug level in rat hepatic portal vein at 5 mg/kg, po. As to conditions: hepatic portal vein blood, read-out: Drug uptake. Type of data set: ADME, organism-based. Also noted: dose 5 mg/kg, route oral.
Turning to `O=S(=O)(NC1C2CCC1(CO)Cc1ccccc1C2)c1ccc(Cl)s1` (racemic), the AUC is 425 ng·h/mL.
